This is an account of results in ChEMBL document CHEMBL3507680, “University of Dundee, Gates Library screen for HepG2 cell viability”.

This data set is described as follows: Human HepG2 cell viability assay in 384 well format. Format: toxicity, cell-based. Further details: dose 125 nL, time 70.5 hour; cytotoxicity at 70.5 h: concentration not given beside the values. To be noted: HepG2 cells, read-out: Inhibition.
For the compound `CC(=O)N1CC2(CCCC2)c2ccccc21`, the cytotoxicity at 70.5 h is -3.2%.

As to `CN(CCOc1ccccc1F)S(=O)(=O)CC1CCOCC1`, the cytotoxicity at 70.5 h is -8.77%.

For the compound `NC(=O)CCCNC(=O)CCc1cc(Br)cs1`, the cytotoxicity at 70.5 h is -5.18%.

In the case of `O=C(C1CCOc2ccccc21)N1CCOc2cccc(F)c21` (stereo not drawn), the cytotoxicity at 70.5 h came to 4.13%.

Consider `CC(=O)N1CCN(c2ccccc2CNc2cc(F)cc(F)c2)CC1`, for which the cytotoxicity at 70.5 h was determined as 13.8%.

`O=S(=O)(c1ccc2c(c1)CCC2)N1CCCC(Cn2cncn2)C1` (stereo not drawn): the cytotoxicity at 70.5 h was determined as 0.224%.

Regarding `O=C(NCc1ccc(C(=O)O)o1)c1ccc(F)cc1`, the cytotoxicity at 70.5 h stood at 0.996%.

For `O=S(=O)(c1cccc(Cl)c1)N1CCCC(Cn2cncn2)C1` (stereo not drawn), the cytotoxicity at 70.5 h is -4.36%.

For `Cn1nc2c(cc1=O)CN(CC1CCCCO1)CC2` (stereo not drawn), the cytotoxicity at 70.5 h is -2.64%.

As for `CCOC(C)C(=O)NCc1cccc(CN2CCCCCC2)c1` (stereo not drawn), the cytotoxicity at 70.5 h was -2.85%.

As for `O=C(C1CCCC1)N1CCOc2cccc(F)c21`, the cytotoxicity at 70.5 h is -7.17%.

Take `COc1ccc(NCc2ccccc2N2CCN(C(C)=O)CC2)cn1`: the cytotoxicity at 70.5 h was 0.712%.

In the case of `CC(=O)N1CCN(c2ccccc2CNc2ccc(C)cn2)CC1`, the cytotoxicity at 70.5 h is -3.33%.

On to `CCN(Cc1c(F)cccc1F)C(=O)c1ccncc1O`, for which the cytotoxicity at 70.5 h is -7.76%.

In the case of `CCC(C(=O)NCCc1ccn(-c2ccccc2)n1)N1CCCC1=O` (stereo not drawn), the cytotoxicity at 70.5 h was -5.95%.

For the compound `COCCCS(=O)(=O)N1CCN(Cc2cccn2C)CC1`, the cytotoxicity at 70.5 h is 43.4%.

Turning to `CCn1cnnc1CNC(=O)c1ccc(Br)cc1F`, the cytotoxicity at 70.5 h was 22.3%.

On to `N#Cc1ncn(CC(=O)N2CCCC2c2cccs2)n1` (stereo not drawn), for which the cytotoxicity at 70.5 h is 22.9%.

As for `CN(CC(=O)NC(C)(C)C)Cc1cccc2c1OCCO2`, the cytotoxicity at 70.5 h stood at 33.4%.

On to `CCC(NC(=O)NC1CCN(S(C)(=O)=O)CC1)c1cccs1` (stereo not drawn), for which the cytotoxicity at 70.5 h was -11.5%.

`O=C(C1CC1)N1CCCCCC1C1CCN(c2ncccn2)CC1` (stereo not drawn): the cytotoxicity at 70.5 h was -9.64%.

In the case of `NC(=O)N1CCCCCC1C1CCN(c2nccc(C(F)(F)F)n2)CC1` (stereo not drawn), the cytotoxicity at 70.5 h is -13.9%.

For `CCc1nnc2n1CCN(c1nc(C)cc(N(C)C)n1)C2`, the cytotoxicity at 70.5 h is -13.4%.

Take `O=C(COc1ccc(Cl)cc1)NCc1nncn1C1CC1`: the cytotoxicity at 70.5 h is -14.1%.

For the compound `CCn1cnnc1CCNC(=O)c1ccc(Br)cc1F`, the cytotoxicity at 70.5 h is -4.19%.

Regarding `COCc1c(Br)cccc1NC(=O)N(C)CCO`, the cytotoxicity at 70.5 h was -12.1%.

Take `CS(=O)(=O)NCCN1CCSCC1c1ccc(Cl)cc1` (stereo not drawn): the cytotoxicity at 70.5 h was -2.66%.

Take `NC(=O)N1CCCC(C(=O)NCCOc2ccc(F)cc2F)C1` (stereo not drawn): the cytotoxicity at 70.5 h was found to be 0.645%.

With `Cc1noc(C)c1NC(=O)NC1CCN(C(=O)OC(C)(C)C)CC1`, the cytotoxicity at 70.5 h was -9.26%.

On to `NC(=O)C1CCCN1CCCc1ccc(Cl)cc1` (stereo not drawn), for which the cytotoxicity at 70.5 h was -5.15%.

For `O=C(NCC1(O)CCOCC1)c1ccn(-c2ccccc2F)n1`, the cytotoxicity at 70.5 h is -9.56%.

For the compound `O=C(NCC1(O)CCSC1)c1ccn(-c2ccccc2F)n1` (stereo not drawn), the cytotoxicity at 70.5 h is -15.6%.

Consider `CNC(=O)c1cccc(NCC(=O)Nc2cc(C)nn2C)c1C`, for which the cytotoxicity at 70.5 h was -14%.

`CCNC(=O)N1CCC(=Cc2ccccc2)CC1`: the cytotoxicity at 70.5 h was 1.05%.

`Cc1oc(CNC(=O)Cc2cccc(OC(F)F)c2)cc1C(=O)O`: the cytotoxicity at 70.5 h was -7.31%.

Regarding `C/C=C(/C)C(=O)NS(=O)(=O)c1ccc(C(F)(F)F)cc1`, the cytotoxicity at 70.5 h was 0.976%.

As for `Cc1ccc(CNC(=O)NCC(=O)N2CCCC2)c(N2CCCC2)c1`, the cytotoxicity at 70.5 h worked out at 4.74%.

Regarding `O=C(OCc1ccccc1)C1CCCN1Cc1nc(C2CC2)no1` (stereo not drawn), the cytotoxicity at 70.5 h was -17.4%.

For `Cc1noc(C)c1C(C)NC(=O)N1CCN(c2cccs2)CC1` (stereo not drawn), the cytotoxicity at 70.5 h was determined as 6.76%.

Turning to `O=C(CN1CCN(c2ncnc3cccc(F)c23)CC1)N1CCCC1`, the cytotoxicity at 70.5 h is -9.51%.

With `CCc1noc(CN2CCCC2C(=O)OCc2ccccc2)n1` (stereo not drawn), the cytotoxicity at 70.5 h was -16.5%.

Take `CC(O)(CNc1ccc(Cl)c(C#N)n1)c1ccsc1` (stereo not drawn): the cytotoxicity at 70.5 h was determined as 10.6%.

For `Cn1cc(C(C)(O)CNc2ccc(Cl)c(C#N)n2)cn1` (stereo not drawn), the cytotoxicity at 70.5 h came out at 5.37%.

For `CC(C)CCC(=O)N1CCN(C(C)c2nnc(CC(C)C)o2)CC1` (stereo not drawn), the cytotoxicity at 70.5 h stood at 23.3%.

As to `O=C(c1sccc1-n1cnnn1)N1CCCCC1`, the cytotoxicity at 70.5 h was -6.17%.

Regarding `CC(Nc1ccc(Br)cc1)c1nc(C2CC2)no1` (stereo not drawn), the cytotoxicity at 70.5 h was -1.22%.

As for `CC1CCN(C(=O)c2sccc2-n2cnnn2)CC1`, the cytotoxicity at 70.5 h was -4.67%.

In the case of `CC(C(=O)NCc1ccco1)N1CCN(Cc2nccn2C)CC1` (stereo not drawn), the cytotoxicity at 70.5 h was -5.54%.

`O=C1CCN(C(=O)NCC(c2ccccc2)c2ccccc2)CCN1`: the cytotoxicity at 70.5 h was -2.48%.

Turning to `CCC(=O)NCC(=O)NC(C)c1sc(-c2ccccc2F)nc1C` (stereo not drawn), the cytotoxicity at 70.5 h amounted to 10.3%.

`CCC(=O)NCC1(O)CCC(C(C)(C)C)CC1` (stereo not drawn): the cytotoxicity at 70.5 h was -4.59%.

Turning to `CCC(=O)NCC(=O)NCC1(O)CCC(C(C)(C)C)CC1` (stereo not drawn), the cytotoxicity at 70.5 h was -7.33%.

Take `CC(C)n1cnnc1CNC(=O)c1cnn(Cc2ccccc2)c1`: the cytotoxicity at 70.5 h was -2.61%.

In the case of `Cc1cccc(CNc2ccc(C(=O)N3CCC(CO)CC3)cc2)c1`, the cytotoxicity at 70.5 h is -5.19%.

For the compound `CCNC(=O)CCC(=O)NCC1(O)CCC(C(C)(C)C)CC1` (stereo not drawn), the cytotoxicity at 70.5 h was -2.55%.

On to `CCN1CC(COC(=O)c2cccc(Br)c2)CC1=O` (stereo not drawn), for which the cytotoxicity at 70.5 h is -7.36%.

For `O=C1CC2(CCSC2)C(=O)N1Cc1ncc(-c2cccc(F)c2)o1` (stereo not drawn), the cytotoxicity at 70.5 h was -1.19%.

Consider `CC(C)NC(=O)N1CCC[C@H]1C(=O)NCCCc1cccc(F)c1`, for which the cytotoxicity at 70.5 h is -5.95%.

Take `O=C1CC2(CCSC2)C(=O)N1Cc1coc(-c2ccc(F)cc2)n1` (stereo not drawn): the cytotoxicity at 70.5 h was -3.42%.

Regarding `CCN1CC(COC(=O)c2ccc(N(C)C)cc2F)CC1=O` (stereo not drawn), the cytotoxicity at 70.5 h is -3.33%.

`N#Cc1ccc(CN2CCN(Cc3ccncc3Cl)CC2=O)cc1`: the cytotoxicity at 70.5 h amounted to 2.38%.

Take `CC(C)COC(=O)N1CCCN(C(C)c2nnc(CC(C)C)o2)CC1` (stereo not drawn): the cytotoxicity at 70.5 h is -3.09%.

Consider `CCN1CC(COC(=O)c2cc(Br)ccc2F)CC1=O` (stereo not drawn), for which the cytotoxicity at 70.5 h worked out at 0.441%.

Regarding `CC1(C)CN(C(CNS(N)(=O)=O)c2ccc(Cl)cc2)CCO1` (stereo not drawn), the cytotoxicity at 70.5 h is -3.76%.

As for `CC(=O)N1CCN(C(C)c2nnc(CC(C)C)o2)CC1` (stereo not drawn), the cytotoxicity at 70.5 h is -4.1%.

As for `NC(=O)CC1CCCN(C(=O)NCC2(c3cccs3)CCCC2)C1` (stereo not drawn), the cytotoxicity at 70.5 h is -0.84%.

Consider `N#Cc1ccc(CN2CCN(c3ccncc3Cl)CC2=O)cc1`, for which the cytotoxicity at 70.5 h was -4.03%.

As for `Cc1noc(C(C)Nc2ccc3c(c2)CCC3)n1` (stereo not drawn), the cytotoxicity at 70.5 h was 8.72%.

Turning to `Cc1cc(CN(C)CC2CC(C3CCCCC3)=NO2)no1` (stereo not drawn), the cytotoxicity at 70.5 h is 0.975%.

Regarding `CCOc1ccc2c(c1)C=C(C(=O)NC(C)Cn1cccn1)CO2` (stereo not drawn), the cytotoxicity at 70.5 h is -5.74%.

On to `CCCOc1ccc2c(c1)OCC(C(=O)NC(C)Cn1cccn1)=C2` (stereo not drawn), for which the cytotoxicity at 70.5 h is 1.23%.

Consider `CCCOc1ccc2c(c1)OCC(C(=O)NC(C)Cn1ccnc1)=C2` (stereo not drawn), for which the cytotoxicity at 70.5 h is -6.31%.

Consider `Cc1cc(C)nc(N2CCc3ccc(OC(F)F)cc3C2)n1`, for which the cytotoxicity at 70.5 h is -2.64%.

With `CS(=O)(=O)c1ccc2c(c1)N(C(=O)Cc1ccc(F)cc1)CCC2`, the cytotoxicity at 70.5 h is 14.3%.

As for `CS(=O)(=O)c1ccc2c(c1)N(C(=O)c1cccc(F)c1)CCC2`, the cytotoxicity at 70.5 h is -4.57%.

With `CCc1ccc(O)c(C(=O)N2CCN(CC(=O)N(C)C)CC2)c1`, the cytotoxicity at 70.5 h is -1.61%.

For `CS(=O)(=O)c1cccc2c1CCCN2C(=O)Cc1cccc(F)c1`, the cytotoxicity at 70.5 h was -2.8%.

On to `COc1ccc(Oc2ncccc2NC(=O)N2CCOCC2)cc1`, for which the cytotoxicity at 70.5 h is -6.42%.

For the compound `CC(C)C(NC(=O)Nc1cnn(CC(N)=O)c1)c1ccc(Cl)cc1` (stereo not drawn), the cytotoxicity at 70.5 h was -1.5%.

With `COC(=O)C(CNC(=O)Nc1nncs1)Cc1ccc(O)cc1` (stereo not drawn), the cytotoxicity at 70.5 h is -2.82%.

`CC(Nc1nc2c(cnn2C)c(=O)[nH]1)c1ccc(F)cc1` (stereo not drawn): the cytotoxicity at 70.5 h is -2.55%.

`CC(Nc1nc2c(cnn2C)c(=O)[nH]1)c1ccc2c(c1)CCCC2` (stereo not drawn): the cytotoxicity at 70.5 h is -3.73%.

Consider `CC(C)Sc1ccc(C(C)Nc2nc3c(cnn3C)c(=O)[nH]2)cc1` (stereo not drawn), for which the cytotoxicity at 70.5 h was -3.27%.

`Cn1nc2c(cc1=O)CN(Cc1nc(-c3ccoc3)no1)CC2`: the cytotoxicity at 70.5 h was -2.1%.

For `Cc1cc(CN(C)C(=O)NC(C)Cc2ccc(O)cc2)no1` (stereo not drawn), the cytotoxicity at 70.5 h turned out to be 0.825%.

As for `CC(C(=O)Nc1cnn(CC(N)=O)c1)c1ccc(Cl)s1` (stereo not drawn), the cytotoxicity at 70.5 h was -4.91%.

Consider `Cc1ccc(CN(CC(=O)NCC2CCOC2)c2ccc(F)cc2)o1` (stereo not drawn), for which the cytotoxicity at 70.5 h was -3.8%.

With `O=C(Nc1ccc(OC(F)F)cc1)N1CCC(c2nnc[nH]2)CC1`, the cytotoxicity at 70.5 h was -2.12%.

In the case of `CCOc1cc(NC(=O)N2CCC(c3nnc[nH]3)CC2)ccc1C`, the cytotoxicity at 70.5 h was -0.547%.

Regarding `Cc1cc(CN(C)CC2CCCCC2)no1`, the cytotoxicity at 70.5 h is -2%.

`CCN(Cc1ccccc1C)S(C)(=O)=O`: the cytotoxicity at 70.5 h is -3.77%.

As for `Cc1ccccc1CCCN(C)S(C)(=O)=O`, the cytotoxicity at 70.5 h was -3.41%.

With `Cc1ccccc1CCCN(Cc1ccccn1)S(C)(=O)=O`, the cytotoxicity at 70.5 h is -0.248%.

In the case of `CC(C)n1nc2c(cc1=O)CN(Cc1nc(-c3ccoc3)no1)CC2`, the cytotoxicity at 70.5 h was determined as 17%.

With `CCc1ccc(O)c(C(=O)N2CCCN(CC(=O)N(CC)CC)CC2)c1`, the cytotoxicity at 70.5 h is -0.346%.

For `CCCn1nc2c(cc1=O)CN(Cc1nc(-c3ccoc3)no1)CC2`, the cytotoxicity at 70.5 h was -2.82%.

On to `Cc1cc(CSCc2ccccn2)on1`, for which the cytotoxicity at 70.5 h is -1.54%.

Take `CCc1noc(C(C)N(C)Cc2ccc(OC)c(OC)c2)n1` (stereo not drawn): the cytotoxicity at 70.5 h is 1.83%.

Consider `COCc1nc(C(=O)NS(=O)(=O)c2ccc(C)c(C)c2)cs1`, for which the cytotoxicity at 70.5 h was determined as 25.8%.

For `CSCC(C)(O)CNC(=O)Nc1ccc(C)cc1Br` (stereo not drawn), the cytotoxicity at 70.5 h was -3.05%.

For the compound `Cn1ccc(C(=O)Nc2nnc(-c3ccccn3)[nH]2)cc1=O`, the cytotoxicity at 70.5 h was -22.2%.

As to `CC(C)c1nc2cc(NC(=O)Cn3ccccc3=O)ccc2o1`, the cytotoxicity at 70.5 h was -3.88%.

Take `CC1(C)CN(C(CNC2=NCCN2)c2ccc(Cl)cc2)CCO1` (stereo not drawn): the cytotoxicity at 70.5 h is -5.1%.
